Patent publication US9133117B2, “Triple reuptake inhibitors and methods of their use” (SUNOVION PHARMACEUTICALS INC., priority 2008, dated 2015)
Entries after “also recorded” stand apart in the source; their conditions may differ.

Tests used:
[1] = Brain and plasma levels following oral administration; type: in vivo; details: 10 mg/kg
[2] = system: formalin-induced flinching behavior; experiment: Formalin pain model (flinching behavior); type: in vivo, rat; details: 60 min before formalin
Experimental: Effects of (3aR,6aS)-3a-(3,4-Dichlorophenyl)octahydrocyclopenta[c]pyrrole on acute and persistent inflammatory pain were evaluated in male rats. Pain was induced experimentally by application of a chemical irritant, formalin, which results in a biphasic behavioral response that includes both early (Phase 1, 0-9 minutes) and late (Phase 2, 10-60 minutes) phase flinching behavior. The early phase response is considered to be the result of C-fiber activation while the late phase appears to be dependent on the combination of an inflammatory response in the tissue and functional changes in the dorsal horn of the spinal cord.
Male rats (Sprague-Dawley, 272-315 g, Harlan) were housed 4 animals per cage in a temperature-controlled environment on a 12-hour light-dark cycle with food and water available ad libitum. Animals were allowed to acclimate to the facility for at least 5 days before testing. On the day of the study, a flexible, light-weight, ‘C’-shaped metal band was applied to one hind paw and the rat was dosed orally (PO, 3 mL/kg, via gavage) or intraperitoneally (IP, 1 mL/kg) with vehicle (50 mM acetate buffer (pH 4.5)), (3aR,6aS)-3a-(3,4-dichlorophenyl)octahydrocyclopenta[c]pyrrole or gabapentin. […] Formalin-induced flinching behavior was recorded for 60 minutes.

Row | Compound | levels of tested compounds in brain (order of lines in FIG. 1) [1] | ratio of brain and plasma levels (order of lines in FIG. 2) [1] | effect on formalin-induced flinching behavior ([2]; male rats, 3, 10 and 30 mg/kg PO, phase I 0-9 min, phase II 10-60 min) | effect on formalin-induced flinching behavior (positive control) ([2]; male rats, 100 mg/kg IP)
1 | CN1C[C@H]2CCCC[C@@]2(c2ccc(Cl)c(Cl)c2)C1 [(3aR,7aS)-3a-(3,4-Dichlorophenyl)-2-methyloctahydro-1H-isoindole] | top line | second line |  | 
2 | Clc1ccc([C@@]23CCC[C@@H]2CNC3)cc1Cl [(3aR,6aS)-3a-(3,4-Dichlorophenyl)octahydrocyclopenta[c]pyrrole] |  |  | significant, dose-related decrease in flinching behavior during phases I and II; also recorded: significantly and dose-dependently attenuated formalin-induced flinching behavior in a non-selective manner | 
3 | CN1C[C@@H]2CCC[C@]2(c2ccc(Cl)c(Cl)c2)C1 [(3aS,6aR)-3a-(3,4-dichlorophenyl)-2-methyloctahydrocyclopenta[c]pyrrole] | third line | third line |  | 
4 | NCC1(CC(=O)O)CCCCC1 [Gabapentin, reference compound] |  |  |  | significant and selective attenuation of phase II formalin-induced flinching behavior
5 | CN1C[C@@H]2CCCC[C@]2(c2ccc(Cl)c(Cl)c2)C1 [(3aS,7aR)-3a-(3,4-Dichlorophenyl)-2-methyloctahydro-1H-isoindole] | second line | top line |  | 
6 | CN1C[C@H]2CCC[C@@]2(c2ccc(Cl)c(Cl)c2)C1 [(3aR,6aS)-3a-(3,4-dichlorophenyl)-2-methyloctahydrocyclopenta[c]pyrrole] | fourth line | fourth line |  | 
